These are literature values, as cited in US20100233107A1, “MEDICATED TONING LOTION” (priority 2009, published 2010).

Molecules are shown by their SMILES.

`O=C(O)c1ccccc1O` [salicylic acid]: the solubility in water entry is “approximately 0.2 % by weight”. Moreover, for the setting “one gram of salicylic acid”, the “volume of water in which one gram dissolves” value is 460 mL.
